Assay results from article PMC5529658, “Antiproliferative and Antibacterial Activities of Cirsium scabrum from Tunisia” (Evidence-based Complementary and Alternative Medicine : eCAM, 2017).
Blank lines part the entries; values can stand above or below the molecule they belong to.

Assays:
[1] = tested on: several cultured human cancer cell lines; conditions: cited from earlier work
[2] = tested on: Staphylococcus epidermidis T19A1; experiment: Antimicrobial assay (MIC, agar dilution); type: cell-based
Procedure: (§1) The antimicrobial activity of crude extract and partitions was evaluated against 36 pathogenic microorganisms (22 Gram-positive bacteria, 13 Gram-negative bacteria, and 1 yeast) according to Mahamodo et al.. The 36 microorganisms were grown overnight at 37°C on sloping Mueller-Hinton (MH) agar medium. Briefly, the bacteria were diluted with Ringer's Cysteine (RC) solution to obtain 10^6 bacteria/ml. […] Inocula of 10^4 colony forming units (CFU) were spotted ultimately with a multipoint inoculator (Steers Replicator).

[3] = tested on: Enterococcus faecalis T37B1; experiment: Antimicrobial assay (MIC, agar dilution); type: cell-based
Procedure: as §1

[4] = tested on: Staphylococcus aureus 8143; experiment: Antimicrobial assay (MIC, agar dilution); type: cell-based
Procedure: as §1

[5] = tested on: Staphylococcus lugdunensis T47B2; experiment: Antimicrobial assay (MIC, agar dilution); type: cell-based
Procedure: as §1

[6] = tested on: Staphylococcus capitis T21A3; experiment: Antimicrobial assay (MIC, agar dilution); type: cell-based
Procedure: as §1

[7] = tested on: Staphylococcus aureus 8142; experiment: Antimicrobial assay (MIC, agar dilution); type: cell-based
Procedure: as §1

[8] = tested on: Staphylococcus aureus T11; experiment: Antimicrobial assay (MIC, agar dilution); type: cell-based
Procedure: as §1

[9] = tested on: Dermabacter hominis T47A7; experiment: Antimicrobial assay (MIC, agar dilution); type: cell-based
Procedure: as §1

[10] = tested on: Corynebacterium striatum T40A3; experiment: Antimicrobial assay (MIC, agar dilution); type: cell-based
Procedure: as §1

[11] = tested on: Staphylococcus pettenkoferi T33; experiment: Antimicrobial assay (MIC, agar dilution); type: cell-based
Procedure: as §1

[12] = tested on: Staphylococcus lugdunensis T36A1; experiment: Antimicrobial assay (MIC, agar dilution); type: cell-based
Procedure: as §1

[13] = tested on: Staphylococcus pettenkoferi T282; experiment: Antimicrobial assay (MIC, agar dilution); type: cell-based
Procedure: as §1

[14] = tested on: Staphylococcus aureus T26A4; experiment: Antimicrobial assay (MIC, agar dilution); type: cell-based
Procedure: as §1

[15] = tested on: Pseudomonas aeruginosa T41; experiment: Antimicrobial assay (MIC, agar dilution); type: cell-based
Procedure: as §1

[16] = tested on: Staphylococcus aureus T2510; experiment: Antimicrobial assay (MIC, agar dilution); type: cell-based
Procedure: as §1

[17] = tested on: Escherichia coli T20A2; experiment: Antimicrobial assay (MIC, agar dilution); type: cell-based
Procedure: as §1

[18] = tested on: Staphylococcus saprophyticus 8237; experiment: Antimicrobial assay (MIC, agar dilution); type: cell-based
Procedure: as §1

[19] = tested on: Staphylococcus capitis T29A2; experiment: Antimicrobial assay (MIC, agar dilution); type: cell-based
Procedure: as §1

[20] = tested on: Enterococcus faecalis T47A16; experiment: Antimicrobial assay (MIC, agar dilution); type: cell-based
Procedure: as §1

[21] = tested on: Staphylococcus aureus T21; experiment: Antimicrobial assay (MIC, agar dilution); type: cell-based
Procedure: as §1

[22] = tested on: Corynebacterium striatum T46C1; experiment: Antimicrobial assay (MIC, agar dilution); type: cell-based
Procedure: as §1

[23] = tested on: Dermabacter hominis T49B5; experiment: Antimicrobial assay (MIC, agar dilution); type: cell-based
Procedure: as §1

[24] = tested on: Staphylococcus aureus T281; experiment: Antimicrobial assay (MIC, agar dilution); type: cell-based
Procedure: as §1

[25] = tested on: Staphylococcus epidermidis T151; experiment: Antimicrobial assay (MIC, agar dilution); type: cell-based
Procedure: as §1

[26] = tested on: Staphylococcus aureus T306; experiment: Antimicrobial assay (MIC, agar dilution); type: cell-based
Procedure: as §1

[27] = tested on: Pseudomonas aeruginosa ATCC9027; experiment: Antimicrobial assay (MIC, agar dilution); type: cell-based
Procedure: as §1

[28] = tested on: Staphylococcus aureus T61; experiment: Antimicrobial assay (MIC, agar dilution); type: cell-based
Procedure: as §1

[29] = tested on: Staphylococcus aureus 8148; experiment: Antimicrobial assay (MIC, agar dilution); type: cell-based
Procedure: as §1

[30] = tested on: Streptococcus agalactiae T53A4; experiment: Antimicrobial assay (MIC, agar dilution); type: cell-based; conditions: vancomycin
Procedure: as §1

Structure (SMILES): C[C@H](C/C=C/C(C)(C)OO)[C@H]1CC[C@@]2(C)[C@@H]3CC[C@H]4C(C)(C)[C@@H](O)CC[C@@]45C[C@@]35CC[C@]12C [Compound 3a, 25-hydroperoxycycloart-23-en-3β-ol]
cytotoxic activity [1]: significant cytotoxic activity

Structure (SMILES): C=C(C)C(CC[C@@H](C)[C@H]1CC[C@@]2(C)[C@@H]3CC[C@H]4C(C)(C)[C@@H](O)CC[C@@]45C[C@@]35CC[C@]12C)OO (stereo partly drawn) [Compound 3b, 24-hydroperoxycycloart-25-en-3β-ol]
cytotoxic activity [1]: significant cytotoxic activity

Reference antibiotics MIC values ([2]; gentamicin): S (Gent (gentamicin), S: ≤4) | Reference antibiotics MIC values ([3]; gentamicin): S (Gent (gentamicin), S: ≤4) | Reference antibiotics MIC values ([4]; gentamicin): S (Gent (gentamicin), S: ≤4) | Reference antibiotics MIC values ([5]; gentamicin): S (Gent (gentamicin), S: ≤4) | Reference antibiotics MIC values ([6]; gentamicin): S (Gent (gentamicin), S: ≤4) | Reference antibiotics MIC values ([7]; gentamicin): S (Gent (gentamicin), S: ≤4) | Reference antibiotics MIC values ([8]; gentamicin): S (Gent (gentamicin), S: ≤4) | Reference antibiotics MIC values ([9]; gentamicin): S (Gent (gentamicin), S: ≤4) | Reference antibiotics MIC values ([10]; gentamicin): R (R: >8) | Reference antibiotics MIC values ([11]; gentamicin): S (Gent (gentamicin), S: ≤4) | Reference antibiotics MIC values ([12]; gentamicin): S (Gent (gentamicin), S: ≤4) | Reference antibiotics MIC values ([13]; gentamicin): S (Gent (gentamicin), S: ≤4) | Reference antibiotics MIC values ([14]; gentamicin): S (Gent (gentamicin), S: ≤4) | Reference antibiotics MIC values ([15]; gentamicin): S (Gent (gentamicin), S: ≤4) | Reference antibiotics MIC values ([16]; gentamicin): S (Gent (gentamicin), S: ≤4) | Reference antibiotics MIC values ([17]; gentamicin): R (R: >8) | Reference antibiotics MIC values ([18]; gentamicin): S (Gent (gentamicin), S: ≤4) | Reference antibiotics MIC values ([19]; gentamicin): S (Gent (gentamicin), S: ≤4) | Reference antibiotics MIC values ([20]; gentamicin): S (Gent (gentamicin), S: ≤4) | Reference antibiotics MIC values ([21]; gentamicin): S (Gent (gentamicin), S: ≤4) | Reference antibiotics MIC values ([22]; gentamicin): S (Gent (gentamicin), S: ≤4) | Reference antibiotics MIC values ([23]; gentamicin): S (Gent (gentamicin), S: ≤4) | Reference antibiotics MIC values ([24]; gentamicin): S (Gent (gentamicin), S: ≤4) | Reference antibiotics MIC values ([25]; gentamicin): R (R: >8) | Reference antibiotics MIC values ([26]; gentamicin): S (Gent (gentamicin), S: ≤4) | Reference antibiotics MIC values ([27]; gentamicin): S (Gent (gentamicin), S: ≤4) | Reference antibiotics MIC values ([28]; gentamicin): S (Gent (gentamicin), S: ≤4) | Reference antibiotics MIC values ([29]; gentamicin): S (Gent (gentamicin), S: ≤4)
Structure (SMILES): CNC(C)C1CCC(N)C(OC2C(N)CC(N)C(OC3OCC(C)(O)C(NC)C3O)C2O)O1 (centres unmarked) [Gent, gentamicin]

Structure (SMILES): CN[C@H](CC(C)C)C(=O)N[C@H]1C(=O)N[C@@H](CC(N)=O)C(=O)N[C@H]2C(=O)N[C@H]3C(=O)N[C@H](C(=O)N[C@H](C(=O)O)c4cc(O)cc(O)c4-c4cc3ccc4O)[C@H](O)c3ccc(c(Cl)c3)Oc3cc2cc(c3O[C@@H]2O[C@H](CO)[C@@H](O)[C@H](O)[C@H]2O[C@H]2C[C@](C)(N)[C@H](O)[C@H](C)O2)Oc2ccc(cc2Cl)[C@H]1O [Vanc, vancomycin]
Reference antibiotics MIC values ([2]; vancomycin): R (R: >16) | Reference antibiotics MIC values ([3]; vancomycin): S (Vanc (vancomycin), S: ≤4) | Reference antibiotics MIC values [30]: R (R: >16) | Reference antibiotics MIC values ([4]; vancomycin): S (Vanc (vancomycin), S: ≤4) | Reference antibiotics MIC values ([5]; vancomycin): S (Vanc (vancomycin), S: ≤4) | Reference antibiotics MIC values ([6]; vancomycin): S (Vanc (vancomycin), S: ≤4) | Reference antibiotics MIC values ([7]; vancomycin): S (Vanc (vancomycin), S: ≤4) | Reference antibiotics MIC values ([8]; vancomycin): S (Vanc (vancomycin), S: ≤4) | Reference antibiotics MIC values ([9]; vancomycin): S (Vanc (vancomycin), S: ≤4) | Reference antibiotics MIC values ([10]; vancomycin): S (Vanc (vancomycin), S: ≤4) | Reference antibiotics MIC values ([11]; vancomycin): S (Vanc (vancomycin), S: ≤4) | Reference antibiotics MIC values ([12]; vancomycin): S (Vanc (vancomycin), S: ≤4) | Reference antibiotics MIC values ([13]; vancomycin): S (Vanc (vancomycin), S: ≤4) | Reference antibiotics MIC values ([14]; vancomycin): S (Vanc (vancomycin), S: ≤4) | Reference antibiotics MIC values ([15]; vancomycin): R (R: >16) | Reference antibiotics MIC values ([16]; vancomycin): S (Vanc (vancomycin), S: ≤4) | Reference antibiotics MIC values ([17]; vancomycin): R (R: >16) | Reference antibiotics MIC values ([18]; vancomycin): S (Vanc (vancomycin), S: ≤4) | Reference antibiotics MIC values ([19]; vancomycin): S (Vanc (vancomycin), S: ≤4) | Reference antibiotics MIC values ([20]; vancomycin): S (Vanc (vancomycin), S: ≤4) | Reference antibiotics MIC values ([21]; vancomycin): S (Vanc (vancomycin), S: ≤4) | Reference antibiotics MIC values ([22]; vancomycin): S (Vanc (vancomycin), S: ≤4) | Reference antibiotics MIC values ([23]; vancomycin): S (Vanc (vancomycin), S: ≤4) | Reference antibiotics MIC values ([24]; vancomycin): S (Vanc (vancomycin), S: ≤4) | Reference antibiotics MIC values ([25]; vancomycin): S (Vanc (vancomycin), S: ≤4) | Reference antibiotics MIC values ([26]; vancomycin): S (Vanc (vancomycin), S: ≤4) | Reference antibiotics MIC values ([27]; vancomycin): R (R: >16) | Reference antibiotics MIC values ([28]; vancomycin): S (Vanc (vancomycin), S: ≤4) | Reference antibiotics MIC values ([29]; vancomycin): S (Vanc (vancomycin), S: ≤4)
